Values joined by “and” are separate entries in the source; they are usually repeats but may differ in a detail not shown here. Equal values may be shown once. Read-outs that look alike come from different tables or passages of the source.
Tests used:
insulin receptor [1] = molecular target: T1, insulin receptor (Homo sapiens, UniProt P06213); test: Insulin receptor phosphorylation assay, receptor transfected HEK293 cells; format: cell-based; set-up: expressed in transfected cells; host or cells: HEK293; conditions: Table 10
Procedure: (§1) Color development was stopped 5 min later by adding 0.05 ml 1 N HCl. Absorbance at 450 nm was measured on Titertek Multiscan MCC340 (ThermoFisher, Pittsburgh, Pa.).

IGF-1 receptor [2] = molecular target: T2, IGF-1 receptor (Homo sapiens, UniProt P08069); test: IGF-1 receptor phosphorylation assay, receptor transfected HEK293 cells; format: cell-based; set-up: expressed in transfected cells; host or cells: HEK293
Procedure: as §1

insulin receptor [3] = molecular target: T1, insulin receptor; test: Insulin receptor binding assay (competition, scintillation proximity); set-up: expressed in transfected cells; plasma membrane fragments; conditions: for Ratio: IGF-1 receptor IC50 over insulin receptor IC50
IGF-1 receptor [4] = molecular target: T2, IGF-1 receptor; test: IGF-1 receptor binding assay (competition, scintillation proximity); set-up: expressed in transfected cells; plasma membrane fragments; conditions: for IGF-1 Receptor % IGF-1 (in test): Table 9
IR-B = IR-B (Homo sapiens, UniProt P06213); test: In vitro activity of pegylated analogs relative to native insulin at IR-B
IR-A = IR-A (Homo sapiens, UniProt P06213); test: In vitro activity of pegylated analogs relative to native insulin at IR-A
[5] = system: human mammary epithelial cells (HMEC); test: Human mammary epithelial cells proliferation ([14C]-thymidine); format: cell-based
Procedure: The plate was incubated 4 h at 37° C., 5% CO2 and 90% humidity.

[6] = molecular target: T3, insulin subtype A receptor (IR-A) (Homo sapiens, UniProt P06213); test: Insulin subtype A receptor phosphorylation, receptor transfected HEK293 cells; format: cell-based; conditions: FIGS. 21, 23
T3 construct: expressed in transfected cells; host or cells: HEK293
Procedure: (§2) Color development was stopped 5 min later by adding 0.05 ml 1 N HCl. Absorbance at 450 nm was measured on Titertek Multiscan MCC340 (ThermoFisher, Pittsburgh, Pa.). […]

[7] = molecular target: insulin subtype B receptor (IR-B) (Homo sapiens, UniProt P06213); test: Insulin subtype B receptor phosphorylation, receptor transfected HEK293 cells; format: cell-based; set-up: expressed in transfected cells; host or cells: HEK293
Procedure: as §2

[8] = total phosphorylation, Table 10
[9] = Table 15, read-out: Proliferation HMEC EC50

CC[C@H](C)[C@H](NC(=O)CN)C(=O)N[C@H](C(=O)N[C@@H](CC(=O)O)C(=O)N[C@@H](CCC(=O)O)C(=O)N[C@H]1CSSC[C@@H]2NC(=O)[C@H](CO)NC(=O)[C@H](C)NC(=O)[C@H](Cc3c[nH]cn3)NC(=O)[C@H](CSSC[C@H](NC(=O)[C@H](CC(C)C)NC(=O)[C@H](Cc3c[nH]cn3)NC(=O)[C@H](CCC(=O)O)NC(=O)[C@@H]3CCCN3C(=O)CN)C(=O)NCC(=O)N[C@@H](C)C(=O)N[C@@H](CC(=O)O)C(=O)N[C@@H](CC(C)C)C(=O)N[C@@H](C(C)C)C(=O)N[C@@H](CC(=O)O)C(=O)N[C@@H](C)C(=O)N[C@@H](CC(C)C)C(=O)N[C@@H](Cc3ccc(O)cc3)C(=O)N[C@@H](CC(C)C)C(=O)N[C@@H](C(C)C)C(=O)N[C@H](C(=O)NCC(=O)N[C@@H](CC(=O)O)C(=O)N[C@@H](CCCNC(=N)N)C(=O)NCC(=O)N[C@@H](Cc3ccccc3)C(=O)N[C@@H](Cc3ccc(O)cc3)C(N)=O)CSSC[C@@H](C(=O)N[C@@H](CC(N)=O)C(=O)O)NC(=O)[C@H](Cc3ccc(O)cc3)NC(=O)[C@H](CCSC)NC(=O)[C@H](CCC(=O)O)NC(=O)[C@H](CC(C)C)NC(=O)[C@H](CCCNC(=N)N)NC(=O)[C@H](CCCNC(=N)N)NC(=O)[C@H](CC(C)C)NC(=O)[C@H](CC(=O)O)NC2=O)NC1=O)C(C)C
EC50 (insulin receptor [1]; Insulin Receptor EC50:, total phosphorylation): 0.15 nM and 0.25 nM
Insulin Receptor % Insulin (insulin receptor [1]; listed as IGF-1 A (H8 A9 N21) B(H5D10Y16L17) DPI A-COOH): 840% and 1080%
IGF-1 Receptor % IGF (IGF-1 receptor [2]; Table 10): 181.395%
EC50 (IGF-1 receptor [2]; [8]): 0.43 nM
Ratio (insulin receptor [3]): 80.6
Insulin Receptor % insulin (in test) (insulin receptor [3]; Table 9): 1576.7% and 1667.0%
IGF-1 Receptor % IGF-1 (in test) (IGF-1 receptor [4]): 12.9%

CC[C@H](C)[C@H](NC(=O)CN)C(=O)N[C@H](C(=O)N[C@@H](CC(=O)O)C(=O)N[C@@H](CCC(=O)O)C(=O)N[C@H]1CSSC[C@@H]2NC(=O)[C@H](CO)NC(=O)[C@H](CCCNC(=N)N)NC(=O)[C@H](Cc3ccccc3)NC(=O)[C@H](CSSC[C@H](NC(=O)[C@H](CC(C)C)NC(=O)[C@@H](NC(=O)[C@H](CCC(=O)O)NC(=O)[C@@H]3CCCN3C(=O)CN)[C@@H](C)O)C(=O)NCC(=O)N[C@@H](C)C(=O)N[C@@H](CC(=O)O)C(=O)N[C@@H](CC(C)C)C(=O)N[C@@H](C(C)C)C(=O)N[C@@H](CC(=O)O)C(=O)N[C@@H](C)C(=O)N[C@@H](CC(C)C)C(=O)N[C@@H](Cc3ccc(O)cc3)C(=O)N[C@@H](CC(C)C)C(=O)N[C@@H](C(C)C)C(=O)N[C@H](C(=O)NCC(=O)N[C@@H](CC(=O)O)C(=O)N[C@@H](CCCNC(=N)N)C(=O)NCC(=O)N[C@@H](Cc3ccccc3)C(=O)N[C@@H](Cc3ccc(O)cc3)C(N)=O)CSSC[C@@H](C(=O)N[C@@H](C)C(=O)O)NC(=O)[C@H](Cc3ccc(O)cc3)NC(=O)[C@H](CCSC)NC(=O)[C@H](CCC(=O)O)NC(=O)[C@H](CC(C)C)NC(=O)[C@H](CCCNC(=N)N)NC(=O)[C@H](CCCNC(=N)N)NC(=O)[C@H](CC(C)C)NC(=O)[C@H](CC(=O)O)NC2=O)NC1=O)C(C)C [IGF-1 A:B(D10Y16L17) DPI A-COOH]
Insulin Receptor % Insulin (insulin receptor [1]): 1575%
IGF-1 Receptor % IGF (IGF-1 receptor [2]; Table 10): 111.538%
EC50 (IGF-1 receptor [2]; [8]): 0.78 nM
IGF-1 Receptor % IGF-1 (in test) (IGF-1 receptor [4]): 7.7%

CC[C@H](C)[C@H](NC(=O)CN)C(=O)N[C@H](C(=O)N[C@@H](CC(=O)O)C(=O)N[C@@H](CCC(=O)O)C(=O)N[C@H]1CSSC[C@@H]2NC(=O)[C@H](CO)NC(=O)[C@H](CCCNC(=N)N)NC(=O)[C@H](Cc3ccccc3)NC(=O)[C@H](CSSC[C@H](NC(=O)[C@H](CC(C)C)NC(=O)[C@@H](NC(=O)[C@H](CCC(=O)O)NC(=O)[C@@H]3CCCN3C(=O)CN)[C@@H](C)O)C(=O)NCC(=O)N[C@@H](C)C(=O)N[C@@H](CCC(=O)O)C(=O)N[C@@H](CC(C)C)C(=O)N[C@@H](C(C)C)C(=O)N[C@@H](CC(=O)O)C(=O)N[C@@H](C)C(=O)N[C@@H](CC(C)C)C(=O)N[C@@H](Cc3ccc(O)cc3)C(=O)N[C@@H](CC(C)C)C(=O)N[C@@H](C(C)C)C(=O)N[C@H](C(=O)NCC(=O)N[C@@H](CC(=O)O)C(=O)N[C@@H](CCCNC(=N)N)C(=O)NCC(=O)N[C@@H](Cc3ccccc3)C(=O)N[C@@H](Cc3ccc(O)cc3)C(=O)N[C@@H](Cc3ccccc3)C(=O)N[C@@H](CC(N)=O)C(=O)N[C@@H](CCCCN)C(=O)N3CCC[C@H]3C(=O)N[C@H](C(N)=O)[C@@H](C)O)CSSC[C@@H](C(=O)N[C@@H](C)C(N)=O)NC(=O)[C@H](Cc3ccc(O)cc3)NC(=O)[C@H](CCSC)NC(=O)[C@H](CCC(=O)O)NC(=O)[C@H](CC(C)C)NC(=O)[C@H](CCCNC(=N)N)NC(=O)[C@H](CCCNC(=N)N)NC(=O)[C@H](CC(C)C)NC(=O)[C@H](CC(=O)O)NC2=O)NC1=O)C(C)C [IGF-1 A:B(E10Y16L17)]
Insulin Receptor % Insulin (insulin receptor [1]): 49.2%
IGF-1 Receptor % IGF (IGF-1 receptor [2]; Table 10): 13%
Ratio (insulin receptor [3]): 11.9
Insulin Receptor % insulin (in test) (insulin receptor [3]; Table 9): 58.7% and 98.8%
Insulin Receptor % native insulin activity (0.6 nM) (insulin receptor [3]; Table 9): 90.9% and 117.6%
IGF-1 Receptor % IGF-1 (in test) (IGF-1 receptor [4]): 6.8% and 5.0%

B^1(H5, H10, Y16, L17)25-C^1-A^1 (H8, N18, N21) (GPEHLCGAHLVDALYLVCGDRGFYGYGSSSRRAPQTGIVDECCHRSCDLRRLENYCN) [MIU-35]
% Insulin Activity IR-B (IR-B): 17.4%
% Insulin Activity IR-A (IR-A): 61.4%

B^1(H5,Y16,L17)25-C^1(K8)-A^1(K14, N18,21) (GPEHLCGAELVDALYLVCGDRGFYGYGSSSRKAPQTGIVDECCFRSCDLKRLENYCN) [MIU-69, two 10K PEG chains, at the N-terminus and at amino acid A14]
% Insulin Activity IR-B (IR-B): 0.5%
% Insulin Activity IR-A (IR-A): 1.0%

B^1(H5,Y16,L17)25-C^1(K8)-A^1(N18,21) (GPEHLCGAELVDALYLVCGDRGFYGYGSSSRKAPQTGIVDECCFRSCDLRRLENYCN) [MIU-67, two 10K PEG chains, at the N-terminus and at position C8 of the linking moiety]
% Insulin Activity IR-A (IR-A): 0.2%

B^1(H5,Y16,L17)25-C^1-A^1(N18,21) (GPEHLCGAELVDALYLVCGDRGFYGYGSSSRRAPQTGIVDECCFRSCDLRRLENYCN) [MIU-57, single chain analog with 20 kDa PEG linked to the N-terminus of the B chain]
% Insulin Activity IR-B (IR-B): 1.1%
% Insulin Activity IR-A (IR-A): 3.1%

B^1(H5,Y16,L17, K22)25-C^1(K8)-A^1(N18,21) (GPEHLCGAELVDALYLVCGDKGFYGYGSSSRKAPQTGIVDECCFRSCDLRRLENYCN) [MIU-68, two 10K PEG chains, at the N-terminus and at amino acid B22]
% Insulin Activity IR-A (IR-A): 0.4%

Insulin: native human insulin, 51 amino acid heteroduplex of A chain SEQ ID NO: 1 and B chain SEQ ID NO: 2 [reference compound]
EC50 [5, 9]: 23.4 nM
EC50 ([5]; average measured potency at 24, 48, 72 and 96 hours, read-out: EC50): 6.16 nM

B1: DP20LysC: DP20 cleaved at the lysine of CTP to produce a two chain insulin (protein)
chain 1: GPEHLCGAHLVDALYLVCGDRGFYSSSSRAPPPSLPSPSRLPGPSDTPILPQK
chain 2: GIVDECCHRSCDLRRLENYCN
in vitro phosphorylation activity at the insulin subtype A receptor (result in words) [6]: potency similar to native insulin
EC50 [5, 9]: 8.19 nM
EC50 (IGF-1 receptor [2]; Table 15, read-out: Receptor Phosphorylation IGF-IR EC50): 13.3 nM
EC50 ([7]; Table 15, read-out: Receptor Phosphorylation IR-B EC50): 1.33 nM
EC50 ([7]; read-out: EC50 values (in nM), phosphorylation at the insulin subtype B receptor, experiment of FIG. 18B): 2.44 ± 1.3 nM
EC50 (IGF-1 receptor [4]; Table 15, read-out: Receptor Binding IGR-1R EC50): 50 nM
